The values below come from patent US20240425523A1, “Compounds for the Degradation of EGFR Kinase” (Beigene Switzerland GMBH, priority 2023, published 2024).

Common to all, as to format: cell-based
Assay [1] addresses p-EGFR Del19/C797S (H1975-clone #23 cells) (Homo sapiens, UniProt P00533). Nature of the assay: Cell p-EGFR inhibition assay, HTRF, H1975-clone#23 (DEL19/C797S) cells. The note with it: 16 h treatment; for Imax (%): maximum percentage of pEGFR inhibition; for IC50: pEGFR inhibition. An outline of the steps:
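Phospho-EGFR read by overnight HTRF on lysates, normalized to DMSO-treated high control; IC50, Hill slope and Imax fitted. Compounds were applied for 16 h (10 uM top, 5-fold steps, 8 doses) to an H1975 single clone carrying only exogenous Del19/C797S EGFR after sgRNA knockout of endogenous copies.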

The target of assay [2] is T1, EGFR-L858R/C797S (H1975-clone #8 cells) (Homo sapiens, UniProt P00533, C797S/L858R).
T1 construct: expressed in transfected cells; host or cells: H1975 (endogenous EGFR knocked out, clone #8)
Description: Cell degradation of EGFR, HTRF assay, H1975-clone#8 (L858R/C797S) cells. The settings on record: 16 h treatment; for DC50: EGFR degradation; for Dmax: maximum percentage of degradation. (In TR-FRET formats the signal depends on donor and acceptor labels being close together.)

Assay [3] has as its target T2, EGFR L858R (BaF3-L858R cells) (Homo sapiens, UniProt P00533, L858R).
T2 construct: host or cells: BaF3
Description: Cell degradation of EGFR, HTRF assay, BaF3-L858R cells. The note with it: 16 h treatment; for DC50: EGFR degradation; for Dmax: maximum percentage of degradation. An outline of the steps:
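EGFR L858R levels measured by HTRF antibody pair in lysed BaF3-L858R cells after 16 h compound exposure (8-point 5-fold series from 10 uM final, 37° C). Degradation is relative to DMSO-only cells; DC50 fitted with Hill equation, Dmax taken as the largest percent loss.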

Assay [4] has as its target T3, p-EGFR L858R (BaF3-L858R cells) (Homo sapiens, UniProt P00533, L858R).
T3 construct: host or cells: BaF3
Nature of the assay: Cell p-EGFR inhibition assay, HTRF, BaF3-L858R cells. The note with it: 16 h treatment; for Imax (%): maximum percentage of pEGFR inhibition; for IC50: pEGFR inhibition. An outline of the steps:
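BaF3-L858R cells treated 16 h at 37 °C, 5% CO2 with compound from 10 uM top, 5-fold dilutions, 8 doses, in 0.1% DMSO medium. Lysates read overnight by HTRF p-EGFR antibodies; IC50 fitted to four-parameter curve against DMSO high control.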

With `Cc1cc2cc(n1)-c1cnn(C)c1OC[C@H]1CCC(C1)CN1/C(=N/C2=O)Nc2ccc(N3CCN(C4CCN(c5ccc(NC6CCC(=O)NC6=O)cc5Cl)CC4)CC3)cc21` (some centres unmarked) [Example 103, 3-((3-chloro-4-(4-(4-((7^1R,7^3S,E)-1^1,2^6-dimethyl-3-oxo-5^2,5^3-dihydro-1^1H,5^1H-9-oxa-4-aza-5(2,1)-benzo[d]imidazola-2(2,4)-pyridina-1(4,5)-pyrazola-7(1,3)-cyclopentanacyclononaphane-5^6-yl)piperazin-1-yl)piperidin-1-yl)phenyl)amino)piperidine-2,6-dione], in assay [1], the “Imax (%)” value is 102% and half-maximal inhibition (IC50) required 0.8 nM. In assay [2], the DC50 (commonly the concentration giving 50% degradation) amounted to 2.53 nM and the Dmax – broadly, the greatest extent of degradation seen – is 83.3%. In assay [3], this compound yielded a DC50 of 3.38 nM and a Dmax of 81.6%. Also, in assay [4], the “Imax (%)” value turned out to be 95.6% and the IC50 (as a rule, the concentration at which inhibition is half-maximal) is 16.3 nM.

For `COC[C@H]1CN(c2ccc3c(c2)N2C[C@@H]4CC[C@H](COc5c(cnn5C)-c5cc(cc(C)n5)C(=O)/N=C/2N3)C4)CCN1C1CN(C2CCN(c3cc(F)c([C@H]4CCC(=O)NC4=O)c(F)c3)CC2)C1` [Example 208, (R)-3-(4-(4-(3-((R)-4-((7^1R,7^3S,E)-1^1,2^6-dimethyl-3-oxo-5^2,5^3-dihydro-1^1H,5^1H-9-oxa-4-aza-5(2,1)-benzo[d]imidazola-2(2,4)-pyridina-1(4,5)-pyrazola-7(1,3)-cyclopentanacyclononaphane-5^6-yl)-2-(methoxymethyl)piperazin-1-yl)azetidin-1-yl)piperidin-1-yl)-2,6-difluorophenyl)piperidine-2,6-dione], in assay [1], the “Imax (%)” value turned out to be 99.76% and inhibition was half-maximal at 3.02 nM (IC50). In assay [2], this compound had a DC50 of 1.01 nM and a Dmax of 70.7%. In assay [3], this compound gave a DC50 of 0.67 nM and a Dmax of 91.6%. Also, in assay [4], the “Imax (%)” value amounted to 91.5% and the IC50 was 1.21 nM.

Take `COC[C@@H]1CN(c2ccc3c(c2)N2CC4CC[C@H](COc5c(cnn5C)-c5cc(cc(C)n5)C(=O)/N=C/2N3)C4)CCN1C1CCN(c2ccc(C3CCC(=O)NC3=O)nc2C)CC1` (stereo partly drawn) [Example 73, 3-(5-(4-((S)-4-((7^1R,7^3S,E)-1^1,2^6-dimethyl-3-oxo-5^2,5^3-dihydro-1^1H,5^1H-9-oxa-4-aza-5(2,1)-benzo[d]imidazola-2(2,4)-pyridina-1(4,5)-pyrazola-7(1,3)-cyclopentanacyclononaphane-5^6-yl)-2-(methoxymethyl)piperazin-1-yl)piperidin-1-yl)-6-methylpyridin-2-yl)piperidine-2,6-dione]: in assay [1], the “Imax (%)” value is listed as 101.1% and the midpoint of inhibition, the IC50, lay at 1 nM. Besides, in assay [2], the DC50 is 2.24 nM and the Dmax is 78.4%. Further, in assay [3], the DC50 stood at 2.02 nM and the Dmax worked out at 87.2%. In addition, in assay [4], the “Imax (%)” value is on record as 93.5% and the IC50 was 10.2 nM.

Take `COC[C@@H]1CN(c2ccc3c(c2)N2C[C@@H]4CC[C@H](COc5c(c(C)nn5CCO)-c5cc(cc(C)n5)C(=O)/N=C/2N3)C4)CCN1C1CCN(c2cc(F)c([C@H]3CCC(=O)NC3=O)c(F)c2)CC1` [Example 157, (R)-3-(2,6-difluoro-4-(4-((S)-4-((7^1R,7^3S,E)-1^1-(2-hydroxyethyl)-1^3,2^6-dimethyl-3-oxo-5^2,5^3-dihydro-1^1H,5^1H-9-oxa-4-aza-5(2,1)-benzo[d]imidazola-2(2,4)-pyridina-1(4,5)-pyrazola-7(1,3)-cyclopentanacyclononaphane-5^6-yl)-2-(methoxymethyl)piperazin-1-yl)piperidin-1-yl)phenyl)piperidine-2,6-dione]: in assay [1], the “Imax (%)” value is listed as 100.52% and half-maximal inhibition (IC50) was put at 1.1 nM. Besides, in assay [2], the DC50 worked out at 1.88 nM and the Dmax stood at 88%. In assay [3], this compound had a DC50 of 2.03 nM and a Dmax of 85.8%. Moreover, in assay [4], the “Imax (%)” value turned out to be 96.89% and the IC50 was 2.87 nM.

As for `Cc1cc2cc(n1)-c1cnn(C)c1OC[C@H]1CCC(C1)CN1/C(=N/C2=O)Nc2ccc(N3CC4(CCN(C5CCN(c6cc(F)c([C@H]7CCC(=O)NC7=O)c(F)c6)CC5)CC4)C3)cc21` [Example 125, (R)-3-(4-(4-(2-((7^1R,7^3S,E)-1^1,2^6-dimethyl-3-oxo-5^2,5^3-dihydro-1^1H,5^1H-9-oxa-4-aza-5(2,1)-benzo[d]imidazola-2(2,4)-pyridina-1(4,5)-pyrazola-7(1,3)-cyclopentanacyclononaphane-5^6-yl)-2,7-diazaspiro[3.5]nonan-7-yl)piperidin-1-yl)-2,6-difluorophenyl)piperidine-2,6-dione], the “Imax (%)” value in assay [1] is recorded as 101.9%; in assay [4], 98.6%. For the same compound, the IC50 in assay [1] is 2.2 nM; in assay [4], 20.7 nM. Further, the values for the DC50 in assay [2] and in assay [3] were 2.61 nM and 1.37 nM, respectively. Also, the figures for the Dmax in assay [2] and in assay [3] were 67.4% and 77.1%, respectively.

For `COC[C@@H]1CN(c2ccc3c(c2)N2C[C@@H]4CC[C@H](COc5c(cnn5C)-c5cc(cc(C)n5)C(=O)/N=C/2N3)C4)CCN1CC1CN(c2ccc3c(c2)CN(C2CCC(=O)NC2=O)C3=O)C1` (stereo partly drawn) [Example 63, 3-(5-(3-(((S)-4-((7^1R,7^3S,E)-1^1,2^6-dimethyl-3-oxo-5^2,5^3-dihydro-1^1H,5^1H-9-oxa-4-aza-5(2,1)-benzo[d]imidazola-2(2,4)-pyridina-1(4,5)-pyrazola-7(1,3)-cyclopentanacyclononaphane-5^6-yl)-2-(methoxymethyl)piperazin-1-yl)methyl)azetidin-1-yl)-1-oxoisoindolin-2-yl)piperidine-2,6-dione], in assay [1], the “Imax (%)” value was 100.6% and the IC50 was 0.2 nM. In assay [2], this compound yielded a DC50 of 0.61 nM and a Dmax of 60.9%. Further, in assay [3], the DC50 stood at 0.55 nM and the Dmax was found to be 90%. Also, in assay [4], the “Imax (%)” value is recorded as 103% and it took 0.2 nM to reach half-maximal inhibition (IC50).

Consider `Cc1cc2cc(n1)-c1cnn(C)c1OC[C@H]1CCC(C1)CN1/C(=N/C2=O)Nc2ccc(N3CCN([C@H]4CCN(c5ccc(C6CCC(=O)NC6=O)nc5C)C[C@@H]4F)CC3)cc21` (stereo partly drawn) [Example 76, 3-(5-((3S,4S)-4-(4-((7^1R,7^3S,E)-1^1,2^6-dimethyl-3-oxo-5^2,5^3-dihydro-1^1H,5^1H-9-oxa-4-aza-5(2,1)-benzo[d]imidazola-2(2,4)-pyridina-1(4,5)-pyrazola-7(1,3)-cyclopentanacyclononaphane-5^6-yl)piperazin-1-yl)-3-fluoropiperidin-1-yl)-6-methylpyridin-2-yl)piperidine-2,6-dione], for which, in assay [1], the “Imax (%)” value was 101% and the IC50 is 0.7 nM. In assay [2], this compound gave a DC50 of 3.87 nM and a Dmax of 79.4%. In assay [3], it took 3.23 nM to reach half-maximal degradation (DC50) and the Dmax is 84.8%. Further, in assay [4], the “Imax (%)” value is recorded as 94.9% and 7.8 nM corresponded to half-maximal inhibition (IC50).
